Data on 5 compounds can be found in DBAASP.

Some test systems named below: Escherichia coli 078; Escherichia coli K99; Escherichia coli K88; Escherichia coli UB1005; Bacillus subtilis 168; Vibrio parahaemolyticus; Micrococcus luteus; Vibrio campbellii; Vibrio harveyi; Vibrio alginolyticus; Escherichia coli.
Assay in all cases: ≥ marks a high value that may be exact or a test limit, other limits are often not marked, values filed in µg/mL are converted to µM
Test [1] has as its system Candida tropicalis CGMCC 2.1975.
In test [2] the test system is Staphylococcus epidermidis ATCC 12228.
Test [3] relates to Staphylococcus aureus ATCC 25923.
Test [4] concerns Candida parapsilosis CGMCC 2.3989.
In test [5] the test system is Staphylococcus aureus ATCC 43300.
Test [6] has as its system Salmonella enterica subsp. enterica serovar Pullorum ATCC 7913.
Test [7] concerns Salmonella enterica subsp. enterica serovar Typhimurium C77-31.
The subject of test [8] is Salmonella enterica subsp. enterica serovar Typhimurium ATCC 14028.
For test [9], the system named is Pseudomonas aeruginosa ATCC 27853.
In test [10] the test system is Staphylococcus aureus USA 400.
For test [11], the system named is Staphylococcus aureus MU50.
In test [12] the test system is Candida albicans ATCC 10231.
Test [13] deals with Candida tropicalis ATCC 13803.
Test [14] concerns Escherichia coli ATCC 25922.
Test [15] deals with Pseudomonas aeruginosa PAO1.
The subject of test [16] is Staphylococcus epidermidis 1457.
Test [17] has as its system Staphylococcus aureus Newman.
The subject of test [18] is Staphylococcus aureus USA 200.
The test system of test [19] is Staphylococcus aureus UAMS-1.
Test [20] concerns Klebsiella pneumoniae ATCC 13883.
In test [21] the test system is Staphylococcus aureus USA 300.
Test [22] concerns Candida glabrata ATCC 2001.
For test [23], the system named is Escherichia coli O157:H7 CICC 21530.
Test [24] has as its system Lacticaseibacillus rhamnosus 1.0911.
The subject of test [25] is Salmonella enterica subsp. enterica serovar Choleraesuis CVCC 503.
The subject of test [26] is Streptococcus agalactiae BNCC 185941.
Test [27] concerns Lacticaseibacillus rhamnosus 8014.
Test [28] concerns Lacticaseibacillus rhamnosus 1.9021.
Test [29] has as its system Lacticaseibacillus rhamnosus 1.0936.
Test [30] relates to Staphylococcus aureus ATCC 29213.
The test system of test [31] is Salmonella enterica subsp. enterica serovar Pullorum C79-13.
Test [32] deals with Legionella pneumophila Lens.
In test [33] the test system is Staphylococcus epidermidis.

Converted amounts (≈) assume the structure as drawn. “And” between values parts separate entries of the source, which are not always exact repeats. Identical values can stand only once.

As to `CC[C@H](C)[C@H](NC(=O)[C@H](Cc1c[nH]c2ccccc12)NC(=O)[C@H](CCCN=C(N)N)NC(=O)[C@H](CC(C)C)NC(=O)[C@@H](NC(=O)[C@H](CCCN=C(N)N)NC(=O)[C@H](CCCN=C(N)N)NC(=O)[C@H](C)NC(=O)[C@H](C)N)[C@@H](C)CC)C(=O)N[C@@H](Cc1ccccc1)C(=O)N[C@@H](CCCN=C(N)N)C(N)=O` [AARRILRWIFR], the MIC in the test with Escherichia coli 078 was 4 µM (≈ 5.83 µg/mL); in test [1] it was 4 µM (≈ 5.83 µg/mL); in test [2], 4 µM (≈ 5.83 µg/mL); in test [3], 8 µM (≈ 11.7 µg/mL); in test [4] it was 8 µM (≈ 11.7 µg/mL); in [5], 8 µM (≈ 11.7 µg/mL). For the same compound, the minimum inhibitory concentration (MIC) against Escherichia coli K99 turned out to be 4 µM (≈ 5.83 µg/mL); in test [6], 4 µM (≈ 5.83 µg/mL); in test [7], 4 µM (≈ 5.83 µg/mL); in test [8], 4 µM (≈ 5.83 µg/mL); in test [9] it was 8 µM (≈ 11.7 µg/mL); in the test on Escherichia coli K88, 4 µM (≈ 5.83 µg/mL). In addition, the MIC against Escherichia coli UB1005 was found to be 4 µM (≈ 5.83 µg/mL).

For the compound `CC[C@H](C)[C@H](NC(=O)CNC(=O)[C@H](CO)NC(=O)[C@@H](NC(=O)[C@H](CC(C)C)NC(=O)[C@H](CCCN=C(N)N)NC(=O)CNC(=O)[C@@H](NC(=O)[C@@H](NC(=O)[C@@H]1CCCN1C(=O)[C@H](CC(C)C)NC(=O)[C@@H](N)Cc1ccccc1)[C@@H](C)CC)C(C)C)[C@@H](C)CC)C(=O)N[C@@H](CC(C)C)C(N)=O` [FLPIVGRLISGIL], the MIC in test [10] is 12.5 µM (≈ 17.5 µg/mL); in test [11], 12.5 µM (≈ 17.5 µg/mL); in test [12], 50 µM (≈ 69.8 µg/mL); in [13] it was 8.8 µM (≈ 12.3 µg/mL); in [14], greater than 50 µM; in [15], greater than 50 µM. For the same compound, the MIC is 12.5 µM (≈ 17.5 µg/mL) in test [16]; 12.5 µM (≈ 17.5 µg/mL) in test [17]; 25 µM (≈ 34.9 µg/mL) in test [18]; 25 µM (≈ 34.9 µg/mL) in [19]; no less than 35.4 µM in the test with Bacillus subtilis 168; no less than 50 µM in test [20]. The MIC was 12.5 µM (≈ 17.5 µg/mL) in test [21] and no less than 50 µM in [22].

With `CC[C@H](C)[C@H](NC(=O)CNC(=O)[C@@H](NC(=O)[C@H](Cc1c[nH]c2ccccc12)NC(=O)[C@@H](NC(=O)CNC(=O)[C@@H](NC(=O)[C@H](CCCCN)NC(=O)[C@@H](N)CCCCN)[C@@H](C)CC)[C@@H](C)CC)[C@@H](C)CC)C(=O)N[C@@H](CCCCN)C(=O)N[C@@H](CCCCN)C(N)=O` [KKIGIWIGIKK], the MIC is 4 µM (≈ 5.13 µg/mL) in test [23]; 16 µM (≈ 20.5 µg/mL) in test [24]; 8 µM (≈ 10.3 µg/mL) in test [25]; 64 µM (≈ 82.1 µg/mL) in [2]; 16 µM (≈ 20.5 µg/mL) in [5]; 8 µM and 16 µM in [14]. The MIC in test [15] is 16 µM (≈ 20.5 µg/mL); in test [26], no less than 128 µM; in test [27], 16 µM (≈ 20.5 µg/mL); in test [8], 16 µM (≈ 20.5 µg/mL); in test [28] it was no less than 32 µM; in test [29], no less than 64 µM. Further, the MIC was determined as 4 µM (≈ 5.13 µg/mL) in test [9], 2 µM (≈ 2.57 µg/mL) with Escherichia coli K88, 16 µM (≈ 20.5 µg/mL) in test [30] and 8 µM (≈ 10.3 µg/mL) in test [31].

Regarding `CC[C@H](C)[C@H](NC(=O)[C@H](Cc1ccccc1)NC(=O)[C@H](CC(=O)O)NC(=O)[C@H](C)NC(=O)[C@@H](N)CCSC)C(=O)N[C@@H](C)C(=O)N[C@@H](CCCCN)C(=O)N[C@H](C(=O)N[C@H](C(=O)N[C@@H](CCC(=O)O)C(=O)N[C@H](C(=O)N[C@H](C(=O)N[C@@H](CCCCN)C(=O)NCC(=O)N[C@@H](CC(C)C)C(=O)N[C@H](C(=O)N[C@@H](CC(=O)O)C(=O)N[C@@H](CCC(N)=O)C(=O)N[C@@H](Cc1ccccc1)C(=O)N[C@H](C(=O)N[C@@H](CCC(N)=O)C(=O)N[C@@H](CCCCN)C(=O)O)[C@@H](C)O)[C@@H](C)CC)C(C)C)[C@@H](C)CC)C(C)C)[C@@H](C)CC` [MADFIAKIVEIVKGLIDQFTQK], the MIC in [32] came out at 1.25 µM (≈ 3.14 µg/mL).

For `CC[C@H](C)[C@H](NC(=O)[C@H](Cc1ccccc1)NC(=O)[C@H](Cc1ccc(O)cc1)NC(=O)[C@@H]1CCCN1C(=O)[C@H](CCCN=C(N)N)NC(=O)[C@@H](NC(=O)[C@H](CO)NC(=O)[C@H](Cc1ccc(O)cc1)NC(=O)[C@H](CO)NC(=O)[C@H](CS)NC(=O)[C@H](Cc1ccc(O)cc1)NC(C)=O)[C@@H](C)O)C(=O)N[C@@H](CCCN=C(N)N)C(=O)N[C@@H](Cc1c[nH]c2ccccc12)C(=O)N[C@@H](CCC(N)=O)C(=O)N[C@@H](CC(C)C)C(=O)N[C@@H](CCCCN)C(=O)N[C@@H](Cc1ccccc1)C(=O)N[C@@H](CCCCN)C(=O)N[C@H](C(=O)N[C@@H](CCCCN)C(=O)N[C@H](C(=O)N[C@@H](Cc1c[nH]c2ccccc12)C(=O)N[C@@H](CS)C(=O)N1CCC[C@H]1C(N)=O)[C@@H](C)CC)[C@@H](C)O` [YCSYSTRPYFIRWQLKFKTKIWCP], the MIC (in test [33]; against Vibrio parahaemolyticus; with Micrococcus luteus; against Vibrio campbellii; against Vibrio harveyi; against Vibrio alginolyticus) was no less than 64 µM each time. The compound also yielded an MIC against Escherichia coli greater than 64 µM.
